Source: patent US11013232B2, “Hydrotesting and mothballing composition and method of using combination products for multifunctional water treatment” (priority 2014, dated 2021)

Test system: 5 species of bacteria in a simulated marine environment
Experiment: Molecular technique biocidal properties (qPCR of 16s rDNA)
Format: cell-based
Conditions: for 7 day DNA (copies) / 14 day DNA (copies) / 21 day DNA (copies): dose rate 500 ppm
Protocol: Molecular techniques were performed on the best performing (Formulation 3) commercial product and the embodiments of the invention Formulation 1 and Formulation 2. This aim of the study was to investigate the efficiency of the biocides on inhibiting 5 species of bacteria in a simulated marine environment. This study was conducted over a 21 day period and involved several marine species of bacteria which have all been previously linked with attributing to corrosion. […] A control was used in the testing and glutaraldehyde was selected for this role.
For each species 3 individual inoculums for each replicate were grown from an isolated single colony picked from agar plates. The species used were Desulfovibrio desulfricans (SRB), Shewanella putrefaciens (IRB), Thiobacillus thioparus (SOB), Pseudomonas aeruginosa (biofilm) and Methanolibacter arachidis (methanogens). Following 24 hours of incubation on an orbital shaker, cells were centrifuged and the pelleted cells washed with phosphate buffered saline (PBS). Washed cells were then suspended in PBS and measured to a set optical density via UV spectrometry at 600 nm. Each species was then used to inoculate cultures to give a final starter concentration of 0.01 at 600 nm. Each treatment was conducted in triplicate with each replicate being started at alternative time periods to reduce culture bias and human error. Three negative controls and three positive controls were established for each temperature under study.
The trials were conducted in 125 mL Erlenmeyer flasks containing 75 mL of marine broth, which were subsequently autoclaved for 20 min at 121° C. All bottles were incubated at either 4° C. or 25° C. on an orbital shaking platform at 150 rpm. Triplicate biocide treatments were established at each temperature at concentrations of 500, 750 and 1000 ppm. At each weekly interval, 2 mL samples were collected at 7, 14 and 21 days from each bottle. These were subjected to a co-extraction of DNA which was measured with qPCR. The gene target in this study was 16s rDNA a conserved gene present in all bacteria and Achaea.

Compound: O=CCCCC=O [Glutaraldehyde, Pentane-1,5-dial]
- fold increase in growth compared to the highest level seen in the other biocides (4° C., 500 ppm): 15.8 fold
- fold increase in copy number compared to the highest count in the invention formulation biocide flasks (25° C., 500 ppm): 670 fold
- 7 day DNA (copies) (4° C.): 2.60E+04 copies
- 14 day DNA (copies) (4° C.): 1.11E+08 copies
- 21 day DNA (copies) (4° C.): 7.22E+07 copies
- 7 day DNA (copies) (25° C.): 8.85E+04 copies
- 14 day DNA (copies) (25° C.): 1.00E+03 copies
- 21 day DNA (copies) (25° C.): 2.51E+10 copies
